We go through three compounds from patent US20110076686A1 (priority 2008, published 2011).

This assay concerns Legionella pneumophila. In kind it is cell-based. To be noted: DVC step.
Take `O=C(O)c1cn(C2CC2)c2cc(N3CCNCC3)c(F)cc2c1=O` [ciprofloxacin, Ciprofloxacin]: the “effectiveness as DNA gyrase inhibitor / cellular proliferation inhibitor” value is recorded as “very effective DNA gyrase inhibitors”; the “elongation of Legionella pneumophila cells and blocking of division” value is “allow the Legionella pneumophila cells to elongate in preparation for cell division but actually block these elongated cells from dividing”.
On the same counts, the results for `CC1=C(C(=O)O)N2C(=O)[C@@H](NC(=O)[C@H](N)c3ccccc3)[C@H]2SC1` [cephalexin] are “very effective DNA gyrase inhibitors” and “allow the Legionella pneumophila cells to elongate in preparation for cell division but actually block these elongated cells from dividing”.
On the same counts, the results for `CCn1cc(C(=O)O)c(=O)c2ccc(C)nc21` [nalidixic acid] are “not a reliably effective DNA gyrase inhibitor” and “does not provide sufficient elongation”.
